{"source": "patent US8877759B2", "about": "“Aminopyrazines as ATR kinase inhibitors” (Vertex Pharnaceuticals Incorporated, priority 2011, dated 2014)", "target": "T1, full-length ATR (Homo sapiens, UniProt Q13535)", "T1 construct": "Assays were carried out at 25° C. in the presence of 5 nM full-length ATR", "T1 sequence (Q13535 whole entry)": "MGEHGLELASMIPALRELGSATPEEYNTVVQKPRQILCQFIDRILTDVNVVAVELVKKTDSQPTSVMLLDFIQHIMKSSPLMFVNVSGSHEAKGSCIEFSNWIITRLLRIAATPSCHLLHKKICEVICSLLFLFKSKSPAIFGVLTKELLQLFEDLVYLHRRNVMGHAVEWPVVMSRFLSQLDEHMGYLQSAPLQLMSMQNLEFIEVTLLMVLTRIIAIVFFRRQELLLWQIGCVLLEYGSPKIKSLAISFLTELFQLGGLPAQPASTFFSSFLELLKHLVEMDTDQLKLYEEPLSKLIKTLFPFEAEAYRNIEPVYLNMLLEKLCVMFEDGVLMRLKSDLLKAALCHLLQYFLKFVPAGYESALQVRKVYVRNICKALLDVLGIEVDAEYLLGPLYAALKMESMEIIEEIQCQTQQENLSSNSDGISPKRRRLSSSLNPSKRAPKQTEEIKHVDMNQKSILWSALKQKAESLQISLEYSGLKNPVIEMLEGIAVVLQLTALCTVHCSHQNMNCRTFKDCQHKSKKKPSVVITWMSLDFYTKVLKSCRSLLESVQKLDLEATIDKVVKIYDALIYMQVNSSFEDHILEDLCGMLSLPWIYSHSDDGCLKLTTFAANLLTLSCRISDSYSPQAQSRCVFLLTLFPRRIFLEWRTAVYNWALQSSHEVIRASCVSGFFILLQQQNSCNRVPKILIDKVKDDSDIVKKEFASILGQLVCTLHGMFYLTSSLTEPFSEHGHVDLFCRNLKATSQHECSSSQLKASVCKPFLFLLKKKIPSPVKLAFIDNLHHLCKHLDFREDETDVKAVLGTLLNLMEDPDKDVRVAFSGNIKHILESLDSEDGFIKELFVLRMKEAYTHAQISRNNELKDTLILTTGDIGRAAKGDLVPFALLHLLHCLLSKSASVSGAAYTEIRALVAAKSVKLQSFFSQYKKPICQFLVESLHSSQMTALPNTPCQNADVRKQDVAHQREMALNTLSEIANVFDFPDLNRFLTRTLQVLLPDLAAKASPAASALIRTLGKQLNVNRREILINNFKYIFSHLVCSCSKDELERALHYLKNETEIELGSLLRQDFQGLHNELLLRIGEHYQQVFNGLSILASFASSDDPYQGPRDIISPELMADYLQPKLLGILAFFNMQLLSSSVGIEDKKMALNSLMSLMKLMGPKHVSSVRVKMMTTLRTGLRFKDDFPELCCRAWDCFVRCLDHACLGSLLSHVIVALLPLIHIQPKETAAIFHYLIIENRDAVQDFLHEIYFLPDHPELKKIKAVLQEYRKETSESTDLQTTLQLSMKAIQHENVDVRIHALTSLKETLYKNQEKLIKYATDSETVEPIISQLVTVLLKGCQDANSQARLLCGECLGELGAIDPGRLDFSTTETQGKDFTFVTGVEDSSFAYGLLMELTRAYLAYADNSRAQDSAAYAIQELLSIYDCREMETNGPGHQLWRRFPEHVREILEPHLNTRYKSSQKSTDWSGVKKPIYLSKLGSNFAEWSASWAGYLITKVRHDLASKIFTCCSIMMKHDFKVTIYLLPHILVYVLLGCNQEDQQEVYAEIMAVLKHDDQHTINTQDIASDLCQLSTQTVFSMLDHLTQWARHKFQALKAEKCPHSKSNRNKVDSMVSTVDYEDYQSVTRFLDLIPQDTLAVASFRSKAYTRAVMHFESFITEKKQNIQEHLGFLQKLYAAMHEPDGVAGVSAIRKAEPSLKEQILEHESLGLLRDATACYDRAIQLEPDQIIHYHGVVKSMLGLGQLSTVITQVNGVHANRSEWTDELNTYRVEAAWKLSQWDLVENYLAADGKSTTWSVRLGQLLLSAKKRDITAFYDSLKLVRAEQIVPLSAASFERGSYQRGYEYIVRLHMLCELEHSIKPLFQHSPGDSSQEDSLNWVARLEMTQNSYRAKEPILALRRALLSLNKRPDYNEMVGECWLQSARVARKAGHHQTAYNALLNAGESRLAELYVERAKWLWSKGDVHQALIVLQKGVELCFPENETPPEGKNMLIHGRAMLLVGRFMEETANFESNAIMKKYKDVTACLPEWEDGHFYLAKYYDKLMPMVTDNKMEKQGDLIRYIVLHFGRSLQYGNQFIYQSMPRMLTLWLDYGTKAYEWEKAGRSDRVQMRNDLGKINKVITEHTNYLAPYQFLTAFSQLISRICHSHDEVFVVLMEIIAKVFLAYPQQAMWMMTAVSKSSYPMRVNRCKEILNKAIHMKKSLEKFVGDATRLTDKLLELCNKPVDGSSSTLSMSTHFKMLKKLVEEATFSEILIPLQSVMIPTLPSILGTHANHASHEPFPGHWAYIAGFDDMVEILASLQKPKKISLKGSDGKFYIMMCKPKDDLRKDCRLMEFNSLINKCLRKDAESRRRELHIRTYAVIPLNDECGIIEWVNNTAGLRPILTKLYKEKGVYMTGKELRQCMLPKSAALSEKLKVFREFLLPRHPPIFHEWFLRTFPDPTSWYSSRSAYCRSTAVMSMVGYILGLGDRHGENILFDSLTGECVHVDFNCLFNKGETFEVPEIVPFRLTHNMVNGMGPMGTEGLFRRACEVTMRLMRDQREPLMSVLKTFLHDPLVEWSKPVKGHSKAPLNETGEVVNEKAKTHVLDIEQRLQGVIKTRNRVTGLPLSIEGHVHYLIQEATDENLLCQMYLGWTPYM", "assay": "ATR Inhibition Assay (radioactive-phosphate incorporation)", "type": "biochemical", "conditions": "for ATR Ki: Ki(app), 5 nM full-length ATR, 10 μM [γ-33P]ATP, 800 μM target peptide, 25° C.", "experimental": "Compounds were screened for their ability to inhibit ATR kinase using a radioactive-phosphate incorporation assay. Assays were carried out in a mixture of 50 mM Tris/HCl (pH 7.5), 10 mM MgCl2 and 1 mM DTT.\nAssays were carried out at 25° C. in the presence of 5 nM full-length ATR. An assay stock buffer solution was prepared containing all of the reagents listed above, with the exception of ATP and the test compound of interest. […] The plate was pre-incubated for 10 minutes at 25° C. and the reaction initiated by addition of 15 μL [γ-33P]ATP (final concentration 10 μM).\nThe reaction was stopped after […] by the addition of 30 μL 0.1M phosphoric acid containing 2 mM ATP. A multiscreen phosphocellulose filter 96-well plate (Millipore, Cat no. MAPHN0B50) was pretreated with 100 μL 0.2M phosphoric acid prior to the addition of 45 μL of the stopped assay mixture. The plate was washed with 5×200 μL 0.2M phosphoric acid.\nAfter removing mean background values for all of the data points, Ki(app) data were calculated from non-linear regression analysis of the initial rate data using the Prism software package (GraphPad Prism version 3.0cx for Macintosh, GraphPad Software, San Diego Calif., USA).", "note": "pKi: −log10 of the molar value.", "data": [{"smiles": "CC(C)(C#N)c1cc(-c2cnc(N)c(-c3nnc(-c4ccc(OCCN5CCCC5)cc4)o3)n2)ccn1", "note": "[Compound I-69]", "values": [{"measurement": "pKi", "result": "> 9.00"}]}, {"smiles": "CC(C)(C#N)c1cc(-c2cnc(N)c(-c3nnc(-c4ccc(F)cc4NCCN)o3)n2)ccn1", "note": "[Compound I-70]", "values": [{"measurement": "pKi", "result": "> 9.00"}]}, {"smiles": "CC(C)(C#N)c1cc(-c2cnc(N)c(-c3cc(-c4ccc([C@H]5COCCN5)cc4)no3)n2)ccn1", "note": "[Compound I-71]", "values": [{"measurement": "ATR Ki", "result": "+++ (Compounds with a Ki value >5 nM but ≦1 nM are marked with “+++.”)"}]}, {"smiles": "CN(CCN)c1ccc(-c2nnc(-c3nc(-c4ccnc(C(C)(C)C#N)c4)cnc3N)o2)cc1", "note": "[Compound I-72]", "values": [{"measurement": "ATR Ki", "result": "+++ (Compounds with a Ki value >5 nM but ≦1 nM are marked with “+++.”)"}]}, {"smiles": "CC(C)(C#N)c1cc(-c2cnc(N)c(-c3nnc(-c4ccc(N5CCNCC5)cc4)o3)n2)ccn1", "note": "[Compound I-73]", "values": [{"measurement": "pKi", "result": "> 9.00"}]}, {"smiles": "N#CC1(c2cc(-c3cnc(N)c(-c4cc(-c5ccccc5)no4)n3)ccn2)CN2CCC1CC2", "note": "(stereo not shown) [Compound I-74]", "values": [{"measurement": "pKi", "result": "> 9.00"}]}, {"smiles": "CC(C)(C#N)c1cc(-c2cnc(N)c(-c3nnc(-c4ccc(NCCN)cc4F)o3)n2)ccn1", "note": "[Compound I-75]", "values": [{"measurement": "pKi", "result": "7.70 to 8.30"}]}, {"smiles": "CC(C)(C#N)c1cc(-c2cnc(N)c(-c3nnc(-c4ccc(N5CCC(N)CC5)cc4)o3)n2)ccn1", "note": "[Compound I-76]", "values": [{"measurement": "ATR Ki", "result": "+++ (Compounds with a Ki value >5 nM but ≦1 nM are marked with “+++.”)"}]}, {"smiles": "CC(C)(C#N)c1cc(-c2cnc(N)c(-c3nnc(-c4cccc(N5CC[C@@H](N)C5)c4)o3)n2)ccn1", "note": "[Compound I-77]", "values": [{"measurement": "pKi", "result": "> 9.00"}]}, {"smiles": "CNCCN(C)c1ccc(-c2nnc(-c3nc(-c4ccnc(C(C)(C)C#N)c4)cnc3N)o2)cc1", "note": "[Compound I-78]", "values": [{"measurement": "pKi", "result": "> 9.00"}]}, {"smiles": "CC(C)(C#N)c1cc(-c2cnc(N)c(-c3nnc(-c4ccc(C5CCCN5)cc4)o3)n2)ccn1", "note": "(stereo not shown) [Compound I-79]", "values": [{"measurement": "pKi", "result": "> 9.00"}]}, {"smiles": "CC(C)(C#N)c1cc(-c2cnc(N)c(-c3nnc(-c4ccc(C5CNC5)cc4)o3)n2)ccn1", "note": "[Compound I-80]", "values": [{"measurement": "ATR Ki", "result": "+++ (Compounds with a Ki value >5 nM but ≦1 nM are marked with “+++.”)"}]}, {"smiles": "CC(C)(C#N)c1cc(-c2cnc(N)c(-c3nnc(-c4ccc5c(c4)CNC5)o3)n2)ccn1", "note": "[Compound I-81]", "values": [{"measurement": "ATR Ki", "result": "+++ (Compounds with a Ki value >5 nM but ≦1 nM are marked with “+++.”)"}]}, {"smiles": "CC(C)(C#N)c1cc(-c2cnc(N)c(-c3nnc(-c4ccc(C5CNCCN5)cc4)o3)n2)ccn1", "note": "(stereo not shown) [Compound I-82]", "values": [{"measurement": "ATR Ki", "result": "+++ (Compounds with a Ki value >5 nM but ≦1 nM are marked with “+++.”)"}]}, {"smiles": "CC(C)(C#N)c1cc(-c2cnc(N)c(-c3nnc(-c4cccc(NC5CNC5)c4)o3)n2)ccn1", "note": "[Compound I-84]", "values": [{"measurement": "ATR Ki", "result": "+++ (Compounds with a Ki value >5 nM but ≦1 nM are marked with “+++.”)"}]}, {"smiles": "CN(C)CCNC(=O)C(C)(C)c1cc(-c2cnc(N)c(-c3cc(-c4ccccc4)no3)n2)ccn1", "note": "[Compound I-85]", "values": [{"measurement": "pKi", "result": "7.70 to 8.30"}]}, {"smiles": "CN1CCN(c2ccc(-c3nnc(-c4nc(-c5ccnc(C(C)(C)C#N)c5)cnc4N)o3)cc2)CC1", "note": "[Compound I-86]", "values": [{"measurement": "ATR Ki", "result": "+++ (Compounds with a Ki value >5 nM but ≦1 nM are marked with “+++.”)"}]}, {"smiles": "COC[C@@H](N)c1ccc(-c2nnc(-c3nc(-c4ccnc(C(C)(C)C#N)c4)cnc3N)o2)cc1", "note": "[Compound I-87]", "values": [{"measurement": "pKi", "result": "> 9.00"}]}, {"smiles": "CC(C)(C#N)c1cc(-c2cnc(N)c(-c3nnc(-c4ccc(N5CC[C@H](N)C5)cc4)o3)n2)ccn1", "note": "[Compound I-88]", "values": [{"measurement": "pKi", "result": "> 9.00"}]}, {"smiles": "CC(C)(C#N)c1cc(-c2cnc(N)c(-c3nnc(-c4cccc(C5CCCN5)c4)o3)n2)ccn1", "note": "(stereo not shown) [Compound I-89]", "values": [{"measurement": "pKi", "result": "7.70 to 8.30"}]}, {"smiles": "CC(C)(C#N)c1cc(-c2cnc(N)c(-c3nnc(-c4cccc(N5CC[C@H](N)C5)c4)o3)n2)ccn1", "note": "[Compound I-90]", "values": [{"measurement": "pKi", "result": "> 9.00"}]}, {"smiles": "CCCN(CCN(C)C)C(=O)c1cc(-c2cnc(N)c(-c3cc(-c4ccccc4)no3)n2)ccn1", "note": "[Compound I-91]", "values": [{"measurement": "pKi", "result": "7.70 to 8.30"}]}, {"smiles": "CC(C)(C#N)c1cc(-c2cnc(N)c(-c3cc(-c4ccc(CNC5CCCOC5)cc4)no3)n2)ccn1", "note": "(stereo not shown) [Compound I-93]", "values": [{"measurement": "pKi", "result": "> 9.00"}]}, {"smiles": "N#CC1(c2cc(-c3cnc(N)c(-c4nnc(-c5ccccc5)o4)n3)ccn2)CCNCC1", "note": "[Compound I-94]", "values": [{"measurement": "pKi", "result": "7.70 to 8.30"}]}, {"smiles": "CC(C)(C#N)c1cc(-c2cnc(N)c(-c3nnc(-c4cccc(C5CNC5)c4)o3)n2)ccn1", "note": "[Compound I-95]", "values": [{"measurement": "ATR Ki", "result": "+++ (Compounds with a Ki value >5 nM but ≦1 nM are marked with “+++.”)"}]}, {"smiles": "CC(C)(C#N)c1cc(-c2cnc(N)c(-c3nnc(-c4cc5c(s4)CCNC5)o3)n2)ccn1", "note": "[Compound I-96]", "values": [{"measurement": "pKi", "result": "> 9.00"}]}, {"smiles": "CC(C)(C#N)c1cc(-c2cnc(N)c(-c3cc(-c4ccc(CN[C@H]5CCOC5)cc4)no3)n2)ccn1", "note": "[Compound I-97]", "values": [{"measurement": "pKi", "result": "> 9.00"}]}, {"smiles": "CC(C)(C#N)c1cc(-c2cnc(N)c(-c3nnc(-c4ccc(C5COCCN5)cc4)o3)n2)ccn1", "note": "(stereo not shown) [Compound I-99]", "values": [{"measurement": "pKi", "result": "7.00 to 7.70"}]}, {"smiles": "CN1CCN(Cc2ccc(-c3nnc(-c4nc(-c5ccnc(C(C)(C)C#N)c5)cnc4N)o3)cc2)CC1", "note": "[Compound I-100]", "values": [{"measurement": "pKi", "result": "7.70 to 8.30"}]}, {"smiles": "N#CC1(c2cc(-c3cnc(N)c(-c4nnc(-c5cccs5)o4)n3)ccn2)CCNCC1", "note": "[Compound I-101]", "values": [{"measurement": "ATR Ki", "result": "+++ (Compounds with a Ki value >5 nM but ≦1 nM are marked with “+++.”)"}]}, {"smiles": "CC(C)(C#N)c1cc(-c2cnc(N)c(-c3cc(-c4ccc(CNCC5COC5)cc4)no3)n2)ccn1", "note": "[Compound I-102]", "values": [{"measurement": "pKi", "result": "> 9.00"}]}, {"smiles": "CN(C)CCNc1ccc(-c2nnc(-c3nc(-c4ccnc(C(C)(C)C#N)c4)cnc3N)o2)c(F)c1", "note": "[Compound I-103]", "values": [{"measurement": "pKi", "result": "7.00 to 7.70"}]}, {"smiles": "CC(C)(C#N)c1cc(-c2cnc(N)c(-c3nnc(-c4ccc(NCC5CNC5)cc4)o3)n2)ccn1", "note": "[Compound I-104]", "values": [{"measurement": "pKi", "result": "> 9.00"}]}, {"smiles": "CC(C)(C#N)c1cc(-c2cnc(N)c(-c3nnc(-c4ccc(CNCC5COC5)cc4)o3)n2)ccn1", "note": "[Compound I-105]", "values": [{"measurement": "pKi", "result": "> 9.00"}]}, {"smiles": "CC(C)(C#N)c1cc(-c2cnc(N)c(-c3nnc(-c4ccc(O[C@H]5CCNC5)cc4)o3)n2)ccn1", "note": "[Compound I-106]", "values": [{"measurement": "ATR Ki", "result": "+++ (Compounds with a Ki value >5 nM but ≦1 nM are marked with “+++.”)"}]}, {"smiles": "CC(C)(C#N)c1cc(-c2cnc(N)c(-c3nnc(-c4ccc(NC5CNC5)cc4)o3)n2)ccn1", "note": "[Compound I-107]", "values": [{"measurement": "pKi", "result": "> 9.00"}]}, {"smiles": "CN(C)CCNc1cc(F)ccc1-c1nnc(-c2nc(-c3ccnc(C(C)(C)C#N)c3)cnc2N)o1", "note": "[Compound I-108]", "values": [{"measurement": "pKi", "result": "> 9.00"}]}, {"smiles": "CC(C)(C#N)c1cc(-c2cnc(N)c(-c3nnc(-c4ccc(C5CCNCC5)cc4)o3)n2)ccn1", "note": "[Compound I-109]", "values": [{"measurement": "ATR Ki", "result": "+++ (Compounds with a Ki value >5 nM but ≦1 nM are marked with “+++.”)"}]}, {"smiles": "CC(C)(C#N)c1cc(-c2cnc(N)c(-c3nnc(-c4cccc(N5CC(N)C5)c4)o3)n2)ccn1", "note": "[Compound I-110]", "values": [{"measurement": "pKi", "result": "> 9.00"}]}, {"smiles": "CC(C)(C#N)c1cc(-c2cnc(N)c(-c3nnc(-c4cc5c(s4)CNCC5)o3)n2)ccn1", "note": "[Compound I-111]", "values": [{"measurement": "pKi", "result": "> 9.00"}]}, {"smiles": "CC(C)(C#N)c1cc(-c2cnc(N)c(-c3nnc(-c4ccc(OCCN)cc4)o3)n2)ccn1", "note": "[Compound I-112]", "values": [{"measurement": "pKi", "result": "> 9.00"}]}, {"smiles": "CC(C)(C#N)c1cc(-c2cnc(N)c(-c3nnc(-c4ccc(OC5CNC5)cc4)o3)n2)ccn1", "note": "[Compound I-113]", "values": [{"measurement": "pKi", "result": "> 9.00"}]}, {"smiles": "CN(C)CCNc1ccc(-c2nnc(-c3nc(-c4ccnc(C(C)(C)C#N)c4)cnc3N)o2)cc1", "note": "[Compound I-114]", "values": [{"measurement": "ATR Ki", "result": "+++ (Compounds with a Ki value >5 nM but ≦1 nM are marked with “+++.”)"}]}, {"smiles": "CCOC(=O)C(C)(C)c1cc(-c2cnc(N)c(-c3cc(-c4ccccc4)no3)n2)ccn1", "note": "[Compound I-115]", "values": [{"measurement": "ATR Ki", "result": "+++ (Compounds with a Ki value >5 nM but ≦1 nM are marked with “+++.”)"}]}, {"smiles": "CC(C)(C#N)c1cc(-c2cnc(N)c(-c3nnc(-c4ccc(NCCN5CCOCC5)cc4)o3)n2)ccn1", "note": "[Compound I-116]", "values": [{"measurement": "pKi", "result": "> 9.00"}]}, {"smiles": "CNCCNc1ccc(-c2nnc(-c3nc(-c4ccnc(C(C)(C)C#N)c4)cnc3N)o2)cc1", "note": "[Compound I-117]", "values": [{"measurement": "pKi", "result": "> 9.00"}]}]}
